Drawing on patent publication US12054482B2, “TLR8 agonist” (CHIA TAI TIANQING PHARMACEUTICAL GROUP CO., LTD., priority 2018, dated 2024), this text covers EC50 for one compound.

Structures can show the parent of a compound that is named as a salt. Where two headings read alike, the source gives them in different places.

The subject of this assay is human peripheral blood mononuclear cells (hPBMCs). The assay is described as follows: Cytokine induction in human peripheral blood mononuclear cells. The class given is cell-based. As to conditions: PBMC, hPBMC, 24 hours. From the text: Experimental Example 2: Experimental Procedure for Peripheral Blood Mononuclear Cell
TLR8 is a receptor for the innate immune system to sense exogenous pathogens, and can recognize exogenous viral single-stranded RNA and cause the release of a series of cytokines such as TNF-α, IL-12, IFN-γ to elicit an antiviral immune response; TLR7 is another receptor for the innate immune system to sense exogenous pathogens and, when activated, produces primarily such antiviral cytokines as IFN-α. In this experiment, a potential compound of TLR8 agonist was used to stimulate human peripheral blood mononuclear cells (hPBMCs), and the levels of TNF-α, IL-12p40, IFN-γ and IFN-α above were measured to reflect the activation of the compound on TLR8 receptor and its selectivity for TLR8/TLR7.
The experimental procedures are as follows: • 1. Fresh blood of healthy volunteers was collected, and anticoagulated with an EDTA-K2 anticoagulation tube (catalog No. BD-8516542); • 2. hPBMC cells in the middle cloud-like layer were separated after Ficoll density gradient centrifugation, and washed twice with RPMI1640 (source: Gibco, catalog No. 224400-089) containing 10% serum, and the culture medium was resuspended to 10 mL. After the cells were counted with Vi-cell cell counter, the concentration of cell suspension was adjusted to 2×10^6/mL; • 3. The compound was dissolved in DMSO to 100 mM, and diluted to 50 mM and 2 mM with DMSO, which were served as initial concentrations. Then the solutions were each diluted sequentially in a 3-fold gradient (sample at a previous concentration (5 μL)+DMSO (10 μL)) to obtain 8 gradients. The resulting solutions were respectively subjected to 500-fold dilution with the culture medium to prepare the working solutions of the compound; • 4. 100 μL of hPBMC suspension and 100 μL of compound working solution were added to each well of a U-bottom 96-well plate, with the final concentrations being 2000 nM, 666.7 nM, 222.2 nM, 74.1 nM, 24.7 nM, 8.2 nM, 2.7 nM and 0.9 nM respectively, and incubated for 24 hours. Then the supernatants were collected and cryopreserved at −20° C. for the detection of TNF-α, IFN-γ and IL-12p40 cytokines. The other group of compound samples, with the final concentrations being 50 μM, 16.7 μM, 5.6 μM, 1.9 μM, 0.6 μM, 0.2 μM, 0.1 μM and 0.02 μM respectively, were incubated for 24 hours. […] IL-12p40, TNF-α and IFN-γ in the supernatant were detected by flow cytometric bead array (CBA); IFN-α in the cell supernatant was detected by enzyme-linked immuno sorbent assay (ELISA). • 6. Data analysis: compound activity: EC50 values (half maximal effect concentration) were analyzed using a GraphPad Prism software and the dose-response curves of the compound were fitted to calculate EC50 values for the compound.

Take `CCCC[C@](C)(Cc1ncn[nH]1)Nc1nc(N)nc2cnccc12` [Hydrochloride of Example 1]: the concentration for a half-maximal effect (EC50) (CBA, TLR8 pathway cytokine, read-out: IFN-γ EC50) came out at 0.029 µM; the EC50 (CBA, TLR8 pathway cytokine, read-out: IL-12p40 EC50) stood at 0.026 µM; the concentration giving a half-maximal response (EC50) (CBA, TLR8 pathway cytokine, read-out: TNF-α EC50) is 0.105 µM; the EC50 (ELISA, TLR7 pathway cytokine, read-out: IFN-α EC50) stood at 2.8 µM.

One may read the EC50 as the concentration that produces a half-maximal response.
